Laboratory results: patent publication US7939091B2, “Biorational repellents obtained from terpenoids for use against arthropods” (Iowa State University Research Foundation, Inc., priority 1999, dated 2011)

Tests used:
[1] = system: yellow fever mosquitoes, Aedes aegypti; assay: Static-air repellency chamber, spatial and contact repellency, adult female yellow fever mosquitoes; type: in vivo; conditions: application rate 78.6 μg/cm^2
Experimental: Test Equipment. In this testing, a static air repellency chamber was used. The apparatus consisted of a 9×60-cm section of glass tubing with a 2-cm hole drilled at the midpoint along the length for central introduction of the insects. All of the testing was conducted in an environmental chamber at ambient temperatures.
Test Methods. The data for spatial repellency was collected at 15 minutes after the introduction of female yellow fever mosquitoes into a static air repellency chamber. Data for the contact repellency was collected after three hours. The concentrations used in the tests are 1% solution (1 ml of it on a 9-cm diameter filter paper). One (1) ml of a 1% (wt/vol) solution of repellent substance containing hexane as a carrier was pipetted onto a 9-cm diameter filter paper results in a concentration of 157 μg/cm^2. The solution contained the desired mass of compound to be tested added to the desired volume of hexane, e.g., for a 1% solution of catnip essential oil, […] was added to 100 ml of hexane.
One milliliter of the solution was applied to one half of a 9-cm diameter round filter paper with an area of 63.6 cm^2 and then allowed to dry before testing. […] Treated filter papers were placed inside the lids of 9-cm glass petri dishes, and placed over the ends of the glass tube. The position of the treated side, to the right or to the left, was selected by using a random-number table. Approximately fifteen unmated adult female mosquitoes were anaesthetized with CO2 and then introduced to the 9×60-cm glass cylinder through the centered 2-cm hole. Timing began 2 minutes after mosquito introduction, and mosquito distribution inside the static-air choice-test apparatus was observed over a 15-minute period for each treatment to determine spatial repellency. Basically the number of mosquitoes in the non-treated half were considered to be repelled and were counted. Percent repellency was considered to be: (Number of Individuals on Untreated Half−Number of Individuals on Treated Half)/15)×100. Contact repellency was defined in this assay as 100% avoidance of the treated filter paper-after three hours. The experimental design was a completely randomized design using six replications of each treatment.
All test methods were the same as described in Example 7, except spatial repellency over a longer period.
Test Methods. […] Also only three replications were used instead of six.

[2] = system: German cockroach, Blattella germanica; assay: Choice-test arena bioassay (contact irritancy), German cockroach, Example 6; type: in vivo; conditions: 300-second period
Experimental: (§1) A choice-test arena was used to assess irritancy of test solutions to two common household insect pests, the German cockroach (Blattella germanica) and the house fly (Musca domestica). Catnip essential oil obtained by steam distillation of catnip obtained from the same source as described in the above examples, and the two major components of its essential oil, Z,E-nepetalactone and E,Z-nepetalactone (isolated from the essential oil by preparative TLC), were evaluated for behavioral effects of contact irritancy to the German cockroach. The TLC was performed as described in McElvain, S. M. et al., J. Am. Chem. Soc., 1941, 63, 1558-1563. Catnip essential oil and its major constituent Z,E-nepetalactone were tested against the house fly. N,N-diethyl-m-toluamide (DEET) (Aldrich, St. Louis, Mo.) served as a positive control for the choice-test arena assay and as a point of comparison for measuring insect behavioral effects that result from current commercial insect repellents. Test solutions ranging from 10% to 0.1% (vol/vol) active ingredient (a.i.) were made up in acetone and then delivered on to a filter paper for solvent evaporation. […] Choice-test are for German cockroaches and house flies were constructed from plastic Petri dishes. One-half of a 12.5-cm dia. filter paper was treated with 1 ml test solution, and the other was treated with 1 ml of only solvent (control). Both halves of the filter paper were placed in the choice-test arena. Position of the treated filter paper was randomized using a random-number table.
(§2) Individual German cockroaches or house flies were placed in each choice-test arena through a centered hole in the lid of the Petri dish and evaluated for a 300-second period. The amount of time the insect spent on the treated and untreated filter papers were recorded and used to calculate a percentage repellency value: Percentage Repellency=((Time on Untreated-Time on Treated)/300)×100
(§3) Ten replicates of each treatment solution were tested for both German cockroaches and house flies. Details of this assay design and some results have previously been described.

[3] = system: German cockroach (Blattella germanica); assay: Choice test arena repellency bioassay, adult male German cockroach, 300-second test; type: in vivo; conditions: for Mean Treated / Mean Untreated: 300-second test; for % repellency: (untreated − treated/300)*100
Experimental: Test Procedure. Repellency bioassays were conducted to assess the repellent properties of compositions containing catnip steam distillate (nepetalactone), Z,E-nepetalactone, E,Z-nepetalactone and DEET against cockroaches. Certified acetone and certified hexane were also tested in order to evaluate solvent effects. (DEET was dissolved in acetone, because DEET is insoluble in hexane. The tested compounds were dissolved in hexane because hexane was the solvent used to extract these compounds from the distillate). One Whatman 125-mm round filter paper was cut in half. One side was treated with one (1) ml of the test compound and the other side was treated with one (1) ml of solvent. The papers were allowed to dry in a fume hood for approximately two (2) minutes before being placed in a 150-mm Petri dish arena. The relative position of the treated side (i.e., to the right or left) of the dish was randomized using a random number table. […] The hole was stopped using a small piece of tape to prevent the insect from escaping. One adult male German cockroach (Blattella germanica) was selected from the colony and dropped into the pre-formed hole in the Petri dish lid. […] Ten (10) replications were performed for each test compound. Results. Using mean values and their related Standard Error of the Mean values (SEM), repellency of the selected samples was determined as shown in Table 2. Significance due to concentration was determined using ANOVA. […] Comparisons between test compounds were made using a two-tailed paired t-test (“paired t-test”) which indicates “differences” as is known in the art and shown in Table 4 (as compared with a “one-tailed” test, which indicates “greater or less than”). Testing Procedure. The same procedure described in Example 1 was used.

[4] = system: antennectomized male German cockroaches; assay: Choice test arena behavioral assay of antennectomized male cockroaches; type: in vivo, Blattella germanica; conditions: Annectomized male cockroaches
Experimental: Testing Procedure. Male cockroaches were antennectomized by using a razor blade to remove the antennae as close to the head as possible. The cockroaches were allowed to recover from the procedure for 24 hours before being exposed to the test compounds in the bioassay described in Example 1. Results.

[5] = system: house fly, Musca domestica; assay: Choice-test arena bioassay (contact irritancy), house fly; type: in vivo; conditions: 300-second period
Experimental: as §1, §2, §3

[6] = 0.1% test solution vs solvent-treated half, male
[7] = 0.5% test solution vs solvent-treated half, male
[8] = dose 16 μg/cm^2, male B. germanica, in 300 seconds
[9] = dose 80 μg/cm^2, male B. germanica, in 300 seconds
[10] = 1% test solution vs solvent-treated half, male
[11] = 5% test solution vs solvent-treated half, male

CC(C)=CCCC(C)CC=O (stereo not drawn) [Citronellal, citronellal, reference compound]
Average Percentage Repellency Over Time ([1]; 60 min): 10% | Average Percentage Repellency Over Time ([1]; 120 min): 19% | Average Percentage Repellency Over Time ([1]; 360 min): 1% | Average Percentage Repellency Over Time ([1]; Initial): 79%

CC1=COC(=O)C2[C@@H]1CC[C@@H]2C (stereo partly drawn) [E,Z-Nepetalactone, trans-cis nepetalactone]
Percentage Repellency ± SEM ([2]; application rate 16 μg/cm^2): 46.4 ± 11.0b % | Percentage Repellency ± SEM ([2]; application rate 80 μg/cm^2): 79.4 ± 3.5c % | Mean Treated [3, 6]: 76.7 s | Mean Untreated [3, 6]: 216 s | times less time on the treated side as compared with the untreated side ([3]; 0.5%): ~8 times | Mean Treated [3, 7]: 31.7 s | Mean Untreated [3, 7]: 270 s | Mean seconds on treated side ± SEM ([3]; Non-antennectomized male cockroaches, 80 μg/cm^2): 31.7 ± 5.2 s | % repellency ([3]; dose 16 μg/cm^2): 46% | Mean seconds on treated side ± SEM [3, 8]: 76.7 ± 13.7 b seconds | % repellency ([3]; dose 80 μg/cm^2): 79% | Mean seconds on treated side ± SEM [3, 9]: 31.7 ± 5.2 c seconds | Mean seconds on treated side ± SEM ([4]; 80 μg/cm^2): 153 ± 15.2 s | Mean seconds on untreated side ([4]; 80 μg/cm^2): 149 ± 15.3 s

CCCCCCOC(=O)CCCCC [Hexyl hexanoate]
Mean Treated ([3]; amount used 1% solution): 142 s | Mean Untreated ([3]; amount used 1% solution): 158 s | % repellency ([3]; amount used 1% solution): 5.2%

c1ccc2ccccc2c1 [Naphthalene, reference compound]
Mean Treated ([3]; amount used 1% solution): 117 s | Mean Untreated ([3]; amount used 1% solution): 184 s | % repellency ([3]; amount used 1% solution): 22%

CC(C)=CCc1c2c(c3occ(-c4ccc(O)cc4)c(=O)c3c1O)C=CC(C)(C)O2 [Osajin, osajin]
Mean Treated ([3]; amount used 0.5% solution): 117 s | Mean Untreated ([3]; amount used 0.5% solution): 184 s | % repellency ([3]; amount used 0.5% solution): 22% | Mean Treated ([3]; amount used 1% solution): 103 s | Mean Untreated ([3]; amount used 1% solution): 197 s | % repellency ([3]; amount used 1% solution): 31%

CC(C)=CCc1c2c(c3occ(-c4ccc(O)c(O)c4)c(=O)c3c1O)C=CC(C)(C)O2 [Pomiferin, pomiferin]
Mean Treated ([3]; amount used 1% solution): 138 s | Mean Untreated ([3]; amount used 1% solution): 163 s | % repellency ([3]; amount used 1% solution): 8.3%

CC1=COC(=O)[C@H]2[C@@H]1CC[C@@H]2C [Z,E-Nepetalactone, cis-trans nepetalactone]
Percentage Repellency ± SEM ([2]; application rate 16 μg/cm^2): 16.1 ± 7.4a % | Percentage Repellency ± SEM ([2]; application rate 80 μg/cm^2): 15.4 ± 6.9a % | Percentage Repellency ± SEM ([2]; application rate 160 μg/cm^2): 56.8 ± 7.8b % | Percentage Repellency ± SEM ([2]; application rate 800 μg/cm^2): 68.2 ± 5.7b % | Mean Treated [3, 6]: 127 s | Mean Untreated [3, 6]: 176 s | Mean Treated [3, 7]: 128 s | Mean Untreated [3, 7]: 174 s | Mean Treated [3, 10]: 65.4 s | Mean Untreated [3, 10]: 236 s | times less time on the treated side as compared with the untreated side ([3]; 5%): ~5 times | Mean Treated [3, 11]: 47.3 s | Mean Untreated [3, 11]: 252 s | Mean seconds on treated side ± SEM ([3]; Non-antennectomized male cockroaches, 160 μg/cm^2): 65.4 ± 11.8 s | % repellency ([3]; dose 16 μg/cm^2): 16% | Mean seconds on treated side ± SEM [3, 8]: 127 ± 11.2 a seconds | % repellency ([3]; dose 80 μg/cm^2): 15% | Mean seconds on treated side ± SEM [3, 9]: 128 ± 10.4 a seconds | % repellency ([3]; dose 160 μg/cm^2): 57% | Mean seconds on treated side ± SEM ([3]; dose 160 μg/cm^2, male B. germanica, in 300 seconds): 65.4 ± 11.8 b seconds | % repellency ([3]; dose 800 μg/cm^2): 68% | Mean seconds on treated side ± SEM ([3]; dose 800 μg/cm^2, male B. germanica, in 300 seconds): 47.3 ± 8.7 b seconds | Percentage Repellency ([5]; application rate 80 μg/cm^2): 87.3% | Percentage Repellency ([5]; application rate 160 μg/cm^2): 69.3% | Percentage Repellency ([5]; application rate 800 μg/cm^2): 96.0% | Mean seconds on treated side ± SEM ([4]; 160 μg/cm^2): 121 ± 10.6 s | Mean seconds on untreated side ([4]; 160 μg/cm^2): 180 ± 10.5 s

CC1=CC[C@@]23[C@@H]([C@@H]12)[C@H](C(C)C)CC[C@H]3C [α-Cubebene, alpha-cubebene]
Mean Treated ([3]; amount used 0.1% solution): 118 s | Mean Untreated ([3]; amount used 0.1% solution): 182 s | % repellency ([3]; amount used 0.1% solution): 21% | Mean Treated ([3]; amount used 0.5% solution): 99.4 s | Mean Untreated ([3]; amount used 0.5% solution): 211 s | % repellency ([3]; amount used 0.5% solution): 36%
